{"source": "patent US10780080B2", "about": "“Benzamide and active compound compositions and methods of use” (TRANSLATIONAL DRUG DEVELOPMENT, LLC, priority 2016, dated 2020)", "key": {"[1]": {"tested_on": "human acute leukemia cell line (HL-60)", "assay": "CellTiter-Glo cell viability assay, single agent growth inhibition", "format": "cell-based", "details": "HL-60, 72 hours treatment", "method": "Cell viability in the presence of varying concentrations of the benzamide compounds at different time points was used to assess cytotoxicity and the effect of the compounds on cell proliferation.\nCell Viability Assay-Cell viability was measured by the CellTiter-Glo® cell viability assay Promega (Madison, Wis.). The CellTiter-Glo® Luminescent Cell Viability Assay is a homogeneous method to determine the number of viable cells in culture based on quantitation of the ATP present, which signals the presence of metabolically active cells. Following treatment, CellTiter-Glo® is added to treatment wells and incubated at 37° C. luminescence values were measured at using a Molecular Devices Spectramax microplate reader.\nSingle Agent Studies—Cells were grown to 70% confluency, trypsinized, counted, and seeded in 96 well flat-bottom plates at a final concentration of 2.5×10^3-5×10^3 cells/well (Day 0). Cells were allowed to incubate in growth media for 24 hours to allow for maximum adhesion. Treatment with the test agents or standard agents began on Day 1 and continued for 72 hours. At the 72-hour time point, treatment containing media was removed. Viable cell numbers are quantified by the CellTiter-Glo® cell viability assay as described above. Experiments were run with triplicate concentrations to determine growth inhibitory activity. Results from these studies were used to calculate an IC50 value (concentration of drug that inhibits cell growth by 50 percent of control) for each compound.\nData Collection—For single agent and combination studies, data from each experiment was collected and expressed as % Cell Growth using the following calculation: % Cell Growth=(ftest/fvehicle)×100\nWhere ftest is the luminescence of the tested sample, and fvehicle is the luminescence of the vehicle in which the drug is dissolved. Dose response graphs and IC50 values were generated using Prism 6 software (GraphPad)."}, "[2]": {"details": "solvents named in the value; cited from earlier work"}, "CT-26 murine colon tumor": {"tested_on": "CT-26 murine colon tumor", "assay": "CT-26 tumor volume growth, ID #24 and anti-4-1BB", "format": "in vivo", "details": "Anti-m4-1BB 0.05 mg/kg IP QDx1, in mm³"}, "[3]": {"tested_on": "intratumoral CD8 T-cells and natural killer cells", "assay": "Intratumoral immune cells in tumor bearing mice", "format": "in vivo"}, "cancer cell models": {"tested_on": "cancer cell models", "details": "literature reports; cited from earlier work"}}, "note": "“And” between values parts separate entries of the source, which are not always exact repeats. Equal values may be shown once. “Also recorded” adds a separate entry of the source.", "data": [{"smiles": "O=C(NO)c1ccc(Nc2nc3ccccc3n2C2CCCCCC2)cc1", "note": "[ID #26, 4-(1-cycloheptyl-1H-benzo[d]imidazol-2-ylamino)-N-hydroxybenzamide]", "values": [{"measurement": "IC50", "setting": "[1]", "value": 660, "unit": "nM"}]}, {"smiles": "O=C(NO)c1ccc(Nc2nc3ccccc3n2C2CCCCC2)cc1", "note": "[ID #25, 4-(1-cyclohexyl-1H-benzo[d]imidazol-2-ylamino)-N-hydroxybenzamide]", "values": [{"measurement": "IC50", "setting": "[1]", "value": 3900, "unit": "nM"}]}, {"smiles": "Nc1ncn([C@@H]2O[C@H](CO)[C@@H](O)[C@H]2O)c(=O)n1", "note": "[Azacitidine, 4-amino-1-β-D-ribofuranozyl-s-triazin-2(1H)-one]", "values": [{"measurement": "solubility", "setting": "[2]", "value": "insoluble in acetone, ethanol and methyl ketone; also recorded: slightly soluble in ethanol/water (50/50), propylene glycol and polyethylene glycol; also recorded: sparingly soluble in water, water-saturated octanol, 5% dextrose in water, N-methyl-2-pyrrolidone, normal saline and 5% Tween 80 in water; also recorded: soluble in dimethylsulfoxide (DMSO)"}]}, {"smiles": "O=C(NO)c1ccc(Nc2nc3ccccc3n2CC2CCCCC2)cc1", "note": "[ID #24, 4-(1-(cyclohexylmethyl)-1H-benzo[d]imidazol-2-ylamino)-N-hydroxybenzamide]", "values": [{"measurement": "IC50", "setting": "[1]", "value": 1150, "unit": "nM"}, {"measurement": "tumor volume, individual animal (ID 001-005)", "setting": "CT-26 murine colon tumor; Day 1, Example #24 150.00 mg/kg PO QD to end", "value": 85}, {"measurement": "tumor volume, individual animal (ID 001-005)", "setting": "CT-26 murine colon tumor; Day 5, Example #24 150.00 mg/kg PO QD to end", "value": 73}, {"measurement": "tumor volume, individual animal (ID 001-005)", "setting": "CT-26 murine colon tumor; Day 8, Example #24 150.00 mg/kg PO QD to end", "value": 65}, {"measurement": "tumor volume, individual animal (ID 001-005)", "setting": "CT-26 murine colon tumor; Day 9, Example #24 150.00 mg/kg PO QD to end", "value": 65}, {"measurement": "tumor volume, individual animal (ID 001-005)", "setting": "CT-26 murine colon tumor; Day 12, Example #24 150.00 mg/kg PO QD to end", "value": "68 and 590"}, {"measurement": "tumor volume, individual animal (ID 001-005)", "setting": "CT-26 murine colon tumor; Day 14, Example #24 150.00 mg/kg PO QD to end", "value": 67}, {"measurement": "numbers of intratumoral CD8 T-cells and natural killer cells", "setting": "[3]", "value": "increased numbers of intratumoral CD8 T-cells and natural killer cells"}]}, {"smiles": "Nc1ncn([C@H]2C[C@H](O)[C@@H](CO)O2)c(=O)n1", "note": "[Decitabine, 4-amino-1-(2-deoxy-β-D-erythro-pentofuranosyl)-1,3,5-triazin-2(1H)one]", "values": [{"measurement": "solubility", "setting": "[2]", "value": "slightly soluble in ethanol/water (50/50), methanol/water (50/50) and methanol; also recorded: sparingly soluble in water; also recorded: soluble in dimethylsulfoxide (DMSO)"}, {"measurement": "effects on cancer cells", "setting": "cancer cell models", "value": "suppression of growth and apoptosis; also recorded: causes G2 arrest, reduces clonogenic survival, and inhibits growth in cells"}]}]}
